Test results reported in patent US20230117034A1, “PYRAZOLOTRIAZINES” (Bayer Aktiengesellschaft, priority 2019, published 2023).

How the values were obtained:
CDK2/CycE = target: T1, CDK2/CycE (Homo sapiens, UniProt P24941); experiment: CDK2/CycE kinase assay (TR-FRET, 2 mM ATP); format: biochemical; conditions: 2 mM ATP (high ATP); median; read-out: CDK2/CyclinE, 2 mM ATP (high ATP), IC50 (median)
T1 construct: purchased ProQinase GmbH (Freiburg, Germany); host or cells: insect cells (Sf9)
Outline: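 Biotin-peptide phosphorylation (0.75 µM substrate, 2 mM ATP final, 25 min, 22 °C) by Sf9-expressed GST-CDK2/GST-CycE, after a 15-min compound pre-binding step. Inhibition scaled between enzyme-free (100%) and uninhibited (0%) wells.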

[1] = target: T2, CYCLIN K (nuclear staining in CAL-120 cells) (Homo sapiens, UniProt O75909); experiment: CYCLIN K nuclear protein level: immunofluorescence high content analysis (CAL-120); format: cell-based; conditions: 24 h, 50% reduction of nuclear CCNK staining intensity, median, read-out: CYCLIN K degradation IF, DC50-[mol/l] (median)
T2 construct: endogenous in cells; host or cells: CAL-120 human breast cancer cells (DSMZ ACC 459)
T2 sequence (O75909 whole entry): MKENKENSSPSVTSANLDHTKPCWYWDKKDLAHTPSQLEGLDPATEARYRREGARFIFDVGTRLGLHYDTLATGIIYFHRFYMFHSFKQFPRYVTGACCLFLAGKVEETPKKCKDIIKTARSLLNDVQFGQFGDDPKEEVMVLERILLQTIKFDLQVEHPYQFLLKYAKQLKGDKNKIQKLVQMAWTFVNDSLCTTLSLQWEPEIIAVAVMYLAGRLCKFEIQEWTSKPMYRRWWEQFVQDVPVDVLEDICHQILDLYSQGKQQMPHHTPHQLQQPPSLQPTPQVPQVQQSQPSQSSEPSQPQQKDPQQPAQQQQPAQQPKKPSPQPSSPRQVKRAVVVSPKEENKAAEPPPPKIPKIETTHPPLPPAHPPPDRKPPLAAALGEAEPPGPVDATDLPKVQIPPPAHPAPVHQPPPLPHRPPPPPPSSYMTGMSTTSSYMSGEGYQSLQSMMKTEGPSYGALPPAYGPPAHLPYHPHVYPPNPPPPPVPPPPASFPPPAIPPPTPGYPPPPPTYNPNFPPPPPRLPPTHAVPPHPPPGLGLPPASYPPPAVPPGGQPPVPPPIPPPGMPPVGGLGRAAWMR
T2 sequence (Q9NYV4 whole entry partner): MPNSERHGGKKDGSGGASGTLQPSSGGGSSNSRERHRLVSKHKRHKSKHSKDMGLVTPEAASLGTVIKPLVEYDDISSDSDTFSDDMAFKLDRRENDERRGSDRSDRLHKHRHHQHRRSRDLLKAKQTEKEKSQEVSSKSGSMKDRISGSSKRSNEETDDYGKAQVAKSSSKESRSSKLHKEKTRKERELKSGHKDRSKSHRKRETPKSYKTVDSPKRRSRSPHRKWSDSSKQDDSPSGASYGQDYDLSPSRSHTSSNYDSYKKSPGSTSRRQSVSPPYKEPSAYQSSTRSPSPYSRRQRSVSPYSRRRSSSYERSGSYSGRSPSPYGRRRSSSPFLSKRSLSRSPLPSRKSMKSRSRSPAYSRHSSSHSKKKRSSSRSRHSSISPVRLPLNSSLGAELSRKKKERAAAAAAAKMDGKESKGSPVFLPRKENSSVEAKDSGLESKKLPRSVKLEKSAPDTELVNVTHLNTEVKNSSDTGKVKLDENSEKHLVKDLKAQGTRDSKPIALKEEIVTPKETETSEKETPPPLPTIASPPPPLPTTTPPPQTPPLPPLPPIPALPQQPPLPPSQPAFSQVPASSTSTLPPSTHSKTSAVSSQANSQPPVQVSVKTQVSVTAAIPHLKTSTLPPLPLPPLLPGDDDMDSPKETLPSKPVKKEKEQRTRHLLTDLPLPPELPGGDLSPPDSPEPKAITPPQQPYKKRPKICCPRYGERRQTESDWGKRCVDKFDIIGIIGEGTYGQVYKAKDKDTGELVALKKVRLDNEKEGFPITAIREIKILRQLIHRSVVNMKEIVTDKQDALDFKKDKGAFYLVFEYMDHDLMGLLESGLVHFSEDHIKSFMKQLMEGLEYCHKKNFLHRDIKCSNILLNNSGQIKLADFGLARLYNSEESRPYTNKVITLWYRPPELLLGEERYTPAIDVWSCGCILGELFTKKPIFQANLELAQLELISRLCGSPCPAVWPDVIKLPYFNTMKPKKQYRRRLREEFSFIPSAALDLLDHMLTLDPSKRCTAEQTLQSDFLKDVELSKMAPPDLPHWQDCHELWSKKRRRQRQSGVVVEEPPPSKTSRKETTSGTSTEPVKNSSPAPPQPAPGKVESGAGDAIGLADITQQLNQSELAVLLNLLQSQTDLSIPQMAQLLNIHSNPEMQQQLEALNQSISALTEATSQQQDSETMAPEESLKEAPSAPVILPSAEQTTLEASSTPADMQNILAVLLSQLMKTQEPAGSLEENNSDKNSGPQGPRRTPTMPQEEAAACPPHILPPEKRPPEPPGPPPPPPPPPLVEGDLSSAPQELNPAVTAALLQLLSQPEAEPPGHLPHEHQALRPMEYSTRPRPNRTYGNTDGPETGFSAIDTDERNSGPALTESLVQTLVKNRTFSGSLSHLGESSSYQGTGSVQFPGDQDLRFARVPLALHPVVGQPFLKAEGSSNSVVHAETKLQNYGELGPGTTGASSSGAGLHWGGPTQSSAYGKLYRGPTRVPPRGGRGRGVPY
Outline: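 Readout is automated confocal image analysis of nuclear cyclin K immunofluorescence (Hoechst nuclei) after PFA fixation. Cells were CAL-120, exposed to compound dose-response 24 h at 37 °C; values are DC50 for halving nuclear CCNK signal relative to DMSO and control wells.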

[2] = system: CAL-120, human breast adenocarcinoma cells; experiment: Proliferation assay CAL-120 (crystal violet, 4 days); format: cell-based; conditions: Homo sapiens, CAL-120, 96 h, CAL-120 cells, median, read-out: Prolif-CAL-120, IC50-[mol/l] (median)
Outline: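 IC50 from a 4-parameter fit of crystal violet absorbance (595 nm), scaled between the day-of-dosing plate (0%) and vehicle cells (100%). MDA-MB-231 or CAL-120 cells were treated for 4 days with 0.01–10 micromol/L compound in 0.1% DMSO after 24 h attachment.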

`Fc1ccccc1-c1cnc(CNc2nc(N3CCOCC3)nc3c(Br)cnn23)[nH]1` [Example 86, 8-bromo-N-{[5-(2-fluorophenyl)-1H-imidazol-2-yl]methyl}-2-(morpholin-4-yl)pyrazolo[1,5-a][1,3,5]triazin-4-amine] was tested, and the IC50 (CDK2/CycE) was 1950 nM, the DC50 [1] was 0.576 nM and the IC50 [2] was 14.4 nM.
Work on `FC(F)(F)Oc1ccccc1-c1cnc(CNc2nc(N3CCOCC3)nc3c(Br)cnn23)[nH]1` [Example 89, 8-bromo-2-(morpholin-4-yl)-N-({5-[2-(trifluoromethoxy)phenyl]-1H-imidazol-2-yl}methyl)pyrazolo[1,5-a][1,3,5]triazin-4-amine] yielded an IC50 (CDK2/CycE) of 9870 nM, a DC50 [1] of 1.43 nM and an IC50 [2] of 32.9 nM.
Compound `FC(F)(F)c1cccc(-c2cnc(CNc3nc(N4CCOCC4)nc4c(Br)cnn34)[nH]2)c1` [Example 83, 8-bromo-2-(morpholin-4-yl)-N-({5-[3-(trifluoromethyl)phenyl]-1H-imidazol-2-yl}methyl)pyrazolo[1,5-a][1,3,5]triazin-4-amine] has an IC50 (CDK2/CycE) of 7660 nM, a DC50 [1] of 1.78 nM and an IC50 [2] of 12.1 nM.
Work on `COC(=O)C1CCN(c2nc(NCc3nc4ccccc4[nH]3)n3ncc(Br)c3n2)CC1` [Example 63, methyl 1-(4-{[(1H-benzimidazol-2-yl)methyl]amino}-8-bromopyrazolo[1,5-a][1,3,5]triazin-2-yl)piperidine-4-carboxylate] yielded an IC50 (CDK2/CycE) of 6490 nM, a DC50 [1] of 4.09 nM and an IC50 [2] of 36 nM.
Compound `c1ccc2[nH]c(CNc3nc(N4CCOCC4)nc4c(C5CC5)cnn34)nc2c1` [Example 92, N-[(1H-benzimidazol-2-yl)methyl]-8-cyclopropyl-2-(morpholin-4-yl)pyrazolo[1,5-a][1,3,5]triazin-4-amine] has an IC50 (CDK2/CycE) of 15600 nM, a DC50 [1] of 0.381 nM and an IC50 [2] of 12 nM.
In the case of `Clc1ccc(-c2cnc(CNc3nc(N4CCOCC4)nc4c(Br)cnn34)[nH]2)cc1` [Example 72, 8-bromo-N-{[5-(4-chlorophenyl)-1H-imidazol-2-yl]methyl}-2-(morpholin-4-yl)pyrazolo[1,5-a][1,3,5]triazin-4-amine], the IC50 (CDK2/CycE) is reported as 4350 nM, the DC50 [1] is reported as 11.4 nM and the IC50 [2] is reported as 32.4 nM.
With `Clc1cccc(-c2cnc(CNc3nc(N4CCOCC4)nc4c(Br)cnn34)[nH]2)c1` [Example 81, 8-bromo-N-{[5-(3-chlorophenyl)-1H-imidazol-2-yl]methyl}-2-(morpholin-4-yl)pyrazolo[1,5-a][1,3,5]triazin-4-amine] the IC50 (CDK2/CycE) was 4030 nM, the DC50 [1] was 3.87 nM and the IC50 [2] was 4.14 nM.
`Fc1cccc(-c2cnc(CNc3nc(N4CCOCC4)nc4c(Br)cnn34)[nH]2)c1` [Example 79, 8-bromo-N-{[5-(3-fluorophenyl)-1H-imidazol-2-yl]methyl}-2-(morpholin-4-yl)pyrazolo[1,5-a][1,3,5]triazin-4-amine] showed an IC50 (CDK2/CycE) of 2300 nM, a DC50 [1] of 0.469 nM and an IC50 [2] of 4.67 nM.
With `Fc1cccc(-c2cnn3c(NCc4nc5ccccc5[nH]4)nc(N4CCOCC4)nc23)c1` [Example 91, N-[(1H-benzimidazol-2-yl)methyl]-8-(3-fluorophenyl)-2-(morpholin-4-yl)pyrazolo[1,5-a][1,3,5]triazin-4-amine] the IC50 (CDK2/CycE) was greater than 20000 nM, the DC50 [1] was 19.6 nM and the IC50 [2] was 105 nM.
For `Fc1ccccc1-c1nnc(CNc2nc(N3CCOCC3)nc3c(Br)cnn23)[nH]1` [Example 75, 8-bromo-N-{[5-(2-fluorophenyl)-4H-1,2,4-triazol-3-yl]methyl}-2-(morpholin-4-yl)pyrazolo[1,5-a][1,3,5]triazin-4-amine], the IC50 (CDK2/CycE) was 2500 nM, the DC50 [1] was 8.7 nM and the IC50 [2] was 53.2 nM.
`CN1CCN(c2nc(NCc3nc4cc(Cl)c(Cl)cc4[nH]3)n3ncc(C4CC4)c3n2)CC1` [Example 305, 8-cyclopropyl-N-[(5,6-dichloro-1H-benzimidazol-2-yl)methyl]-2-(4-methylpiperazin-1-yl)pyrazolo[1,5-a][1,3,5]triazin-4-amine] was tested, and the IC50 (CDK2/CycE) was greater than 20000 nM, the DC50 [1] was 0.972 nM and the IC50 [2] was 4.44 nM.
Work on `CC1(C)CN(c2nc(NCc3nnc(-c4ccccc4)[nH]3)n3ncc(Br)c3n2)CCO1` [Example 68, 8-bromo-2-(2,2-dimethylmorpholin-4-yl)-N-[(5-phenyl-4H-1,2,4-triazol-3-yl)methyl]pyrazolo[1,5-a][1,3,5]triazin-4-amine] yielded an IC50 (CDK2/CycE) of 10600 nM, a DC50 [1] of 2.85 nM and an IC50 [2] of 40.2 nM.
`CC(C)c1cnn2c(NCc3nc4ccccc4[nH]3)nc(N3CCN(C)CC3)nc12` [Example 2, N-[(1H-benzimidazol-2-yl)methyl]-2-(4-methylpiperazin-1-yl)-8-(propan-2-yl)pyrazolo[1,5-a][1,3,5]triazin-4-amine] was tested, and the IC50 (CDK2/CycE) was 11100 nM, the DC50 [1] was 5.04 nM and the IC50 [2] was 31.2 nM.
`Brc1cnn2c(NCc3ncc(-c4cccnc4)[nH]3)nc(N3CCOCC3)nc12` [Example 84, 8-bromo-2-(morpholin-4-yl)-N-{[5-(pyridin-3-yl)-1H-imidazol-2-yl]methyl}pyrazolo[1,5-a][1,3,5]triazin-4-amine] gave an IC50 (CDK2/CycE) of 4840 nM, a DC50 [1] of 11.8 nM and an IC50 [2] of 107 nM.
`Brc1cnn2c(NCc3ncc(-c4ccccn4)[nH]3)nc(N3CCOCC3)nc12` [Example 90, 8-bromo-2-(morpholin-4-yl)-N-{[5-(pyridin-2-yl)-1H-imidazol-2-yl]methyl}pyrazolo[1,5-a][1,3,5]triazin-4-amine] was tested, and the IC50 (CDK2/CycE) was 1790 nM, the DC50 [1] was 0.357 nM and the IC50 [2] was 17.4 nM.
`COC1CCN(c2nc(NCc3nc4ccccc4[nH]3)n3ncc(Br)c3n2)CC1` [Example 62, N-[(1H-benzimidazol-2-yl)methyl]-8-bromo-2-(4-methoxypiperidin-1-yl)pyrazolo[1,5-a][1,3,5]triazin-4-amine] showed an IC50 (CDK2/CycE) of 6450 nM, a DC50 [1] of 2.27 nM and an IC50 [2] of 32.5 nM.
